Source: paper PMC11187542, “Identification of fragments targeting SMYD3 using highly sensitive kinetic and multiplexed biosensor-based screening” (RSC Medicinal Chemistry, 2024)

Key:
[1] = molecular target: T1, SMYD3 (apo, native) (Homo sapiens, UniProt Q9H7B4); test: GCI biosensor kinetic screening, apo SMYD3 surface; type: binding
T1 construct: Full length recombinant SMYD3 was produced as previously reported; made in house; host or cells: E. coli BL21(DE3), in some cases Rosetta 2
T1 sequence (Q9H7B4 1-428): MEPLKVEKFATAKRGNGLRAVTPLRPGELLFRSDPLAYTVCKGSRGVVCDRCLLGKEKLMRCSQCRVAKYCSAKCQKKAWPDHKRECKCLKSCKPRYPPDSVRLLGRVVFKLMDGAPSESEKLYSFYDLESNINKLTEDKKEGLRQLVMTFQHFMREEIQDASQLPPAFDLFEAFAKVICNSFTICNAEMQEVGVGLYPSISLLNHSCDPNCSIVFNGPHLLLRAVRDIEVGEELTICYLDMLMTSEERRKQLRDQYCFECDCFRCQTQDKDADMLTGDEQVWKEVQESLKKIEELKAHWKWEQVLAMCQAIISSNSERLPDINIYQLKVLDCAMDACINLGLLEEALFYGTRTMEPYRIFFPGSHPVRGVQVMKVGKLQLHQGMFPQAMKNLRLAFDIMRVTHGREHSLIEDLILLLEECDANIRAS
Text: (§1) A multiplexed screening assay was set up with three different SMYD3 surfaces and a blank reference surface in flow channels 1–4 (FC1–FC4) (Fig. 2a), as described previously.[5] The apo SMYD3 surface detected fragments interacting anywhere on SMYD3, while a SMYD3 surface blocked by active site-specific tight-binding inhibitor EPZ031686 detected compounds binding elsewhere. The denatured surface served as a reference, detecting fragments binding to unfolded proteins, also potentially present to a significant degree in the other two surfaces.
After preparing the sensor surface and immobilising SMYD3, the functionality of the surface was assessed via analysis of interactions with the co-factor product S-adenosyl-homocysteine (SAH). It was used as a control in all experiments, confirming that sensor surfaces were intact. This was done using the novel multiple injection-based experimental design (Fig. 1) at 25 μM, i.e. in a weak binder mode (Fig. 2b).
(§2) The library was screened using the approach described in Fig. 1, i.e. injection of fragments at 250 μM for increasing durations of time in a single cycle, using a flow rate of 100 μL min^−1, data acquisition set to 40 Hz and with an association time of 5 s and dissociation of 20 s. Each fragment was addressed to all four channels and interactions with the native and blocked surfaces compared. The experimental conditions were chosen to ensure that the assay could reliably characterize the fast and transient interactions expected from typical fragments.
(§3) The kinetic screening of 1056 compounds was successfully completed in 72 hours. […] Hits were identified with full kinetic information using dissociation phases.
(§4) All interaction kinetic experiments were conducted with a GCI–flow-based biosensor (WAVEdelta, Creoptix AG/Malvern Panalytical) and PCH WAVEchip (Creoptix AG/Malvern Panalytical) sensor chips. The sensor chips were conditioned using injections of borate buffer (10 mM sodium tetraborate pH 8.5, 1 M NaCl). The running buffer composition, if not otherwise stated, was TBS buffer (50 mM Tris, 150 mM NaCl, 0.5 mM TCEP, 0.05% Tween 20, 1% DMSO, pH 8). SMYD3 was diluted to the desired concentration in 10 mM bis-Tris (pH 7.0) and amine coupled to the sensor surface of the PCH sensor chip. The sensor chip was functionalized at 25 °C by immobilising SMYD3 with EDC and NHS (Xantec) using an injection time of 420 s and a flow rate of 10 μL min^−1. The immobilisation levels ranged from 5000 pg mm^−2 to 18 500 pg mm^−2 surface mass to enable analysis of fragments spanning a broad range of affinities. After immobilization, the surface was deactivated with a running buffer containing 50 mM Tris for 420 s. The GCI data referencing and analysis were performed using WAVEcontrol V4.5 (Creoptix AG).
(§5) Kinetic measurements with controls and fragments were performed at 15 °C. Analysis of controls and follow up of hits was done using the multi cycle kinetic (MCK) injection of a concentration series for the same time, with a two-fold serial dilution starting at 250 μM for each compound. Solvent correction was performed ranging from 0.5–1.8% DMSO. Blank samples of the running buffer, 1× TBS (50 mM Tris, 150 mM NaCl, 0.5 mM TCEP, 0.05% Tween 20, 1% DMSO, pH 8), were injected during the measurements every fifth cycle. The experimental design illustrated in Fig. 1 was used for the screening against all four surfaces. The sensorgrams were adjusted to account for solvent correction and blank subtraction. Kinetic fitting was performed with the Direct Kinetics engine of WAVEcontrol software V4.5 (Creoptix AG) with a suitable fitting model.

[2] = molecular target: T2, SMYD3 (Homo sapiens, UniProt Q9H7B4); test: GCI biosensor multi cycle kinetic confirmation of hits; type: binding; conditions: two-fold serial dilution starting at 250 μM, 15 °C, global fit 1:1 model
T2 construct: Full length recombinant SMYD3 was produced as previously reported; made in house; host or cells: E. coli BL21(DE3), in some cases Rosetta 2
T2 sequence (Q9H7B4 1-428): T1 sequence (Q9H7B4 1-428)
Protocol: Selected screening hits were also re-tested by conventional multi cycle kinetic analysis in order to confirm the interactions (some compounds were no longer available). Two variants of the GCI biosensor assay were set up, using different immobilisation levels, to allow the confirmation of hits over a broad range of affinities. […] The kinetics varied for the selected hits (ESI, ^† Fig. S2). All hits were not confirmed (ESI, ^† Fig. S1b).
as §4, §5
FL06268 Superstoichiometric and
Figure 1. Examples of sensorgrams from multicycle kinetic experiments with initial fragment hits and SMYD3. A)
Fragments for which crystal structures of the complex with SMYD3 were obtained. A global fit of the sensorgrams
crystal structures were not obtained. […]

[3] = molecular target: T3, SMYD3 in complex with active site-specific tight-binding inhibitor EPZ031686 (Homo sapiens, UniProt Q9H7B4); test: GCI biosensor kinetic screening, active site blocked SMYD3 surface
T3 construct: Full length recombinant SMYD3 was produced as previously reported; made in house; host or cells: E. coli BL21(DE3), in some cases Rosetta 2
T3 sequence (Q9H7B4 1-428): T1 sequence (Q9H7B4 1-428)
Text: as §1, §2, §3, §4, §5

Structure (SMILES): Cn1cnc(S(N)(=O)=O)c1 [FL06268]
- LE (ligand efficiency) ([1]; LE = −RT ln(KD)/n): 0.63 (kcal^-1 mol^-1)/HA
- Kd ([1]; initial kinetic screening, fragment 250 μM, 15 °C): 24.5 µM
- kd ([1]; initial kinetic screening, fragment 250 μM, 15 °C, 1:1 model): 0.52 s⁻¹
- kon at 250 µM ([1]; initial kinetic screening, fragment 250 μM, 15 °C, 1:1 model, read-out: ka): 21400 M⁻¹ s⁻¹
- Outcome of multicycle kinetic experiment (sensorgram assessment) [2]: Superstoichiometric
- LE (ligand efficiency) ([3]; LE = −RT ln(KD)/n, blocked SMYD3 surface): 0.63 (kcal^-1 mol^-1)/HA
- Kd ([3]; initial kinetic screening, fragment 250 μM, 15 °C, SMYD3 blocked by EPZ031686): 24 µM
- kd ([3]; initial kinetic screening, fragment 250 μM, 15 °C, SMYD3 blocked by EPZ031686, 1:1 model): 0.83 s⁻¹
- kon at 250 µM ([3]; initial kinetic screening, fragment 250 μM, 15 °C, SMYD3 blocked by EPZ031686, 1:1 model, read-out: ka): 34100 M⁻¹ s⁻¹
